Source: ChEMBL document CHEMBL3991601, “The target landscape of clinical kinase drugs” (Science, 2017)
Calls of active or inactive are those of the source. Cut-off read from the data, not from the text of the source, for most assays here: actives have a measured Kd and inactives only a lower limit.

Legend:
[1] = target: ATP-dependent RNA helicase DDX3X (Homo sapiens, UniProt O00571)
Activin receptor type-1 = target: T1, Activin receptor type-1 (Homo sapiens, UniProt Q04771)
T1 sequence (Q04771 whole entry): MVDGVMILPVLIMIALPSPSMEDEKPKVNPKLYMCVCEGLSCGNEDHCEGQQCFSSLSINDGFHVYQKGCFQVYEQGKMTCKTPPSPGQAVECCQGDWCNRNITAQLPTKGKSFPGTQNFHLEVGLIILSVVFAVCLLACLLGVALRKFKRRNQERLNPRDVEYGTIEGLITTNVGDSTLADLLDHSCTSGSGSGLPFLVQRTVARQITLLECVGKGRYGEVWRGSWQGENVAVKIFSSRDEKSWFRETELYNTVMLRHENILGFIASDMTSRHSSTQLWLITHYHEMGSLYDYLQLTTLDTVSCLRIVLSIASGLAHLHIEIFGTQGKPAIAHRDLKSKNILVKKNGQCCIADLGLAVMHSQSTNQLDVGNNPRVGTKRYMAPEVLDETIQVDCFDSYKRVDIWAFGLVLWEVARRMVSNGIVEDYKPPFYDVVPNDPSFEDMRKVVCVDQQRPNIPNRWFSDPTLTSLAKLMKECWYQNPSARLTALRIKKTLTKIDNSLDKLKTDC

Heme oxygenase 2 = target: T2, Heme oxygenase 2 (Homo sapiens, UniProt P30519)
T2 sequence (P30519 whole entry): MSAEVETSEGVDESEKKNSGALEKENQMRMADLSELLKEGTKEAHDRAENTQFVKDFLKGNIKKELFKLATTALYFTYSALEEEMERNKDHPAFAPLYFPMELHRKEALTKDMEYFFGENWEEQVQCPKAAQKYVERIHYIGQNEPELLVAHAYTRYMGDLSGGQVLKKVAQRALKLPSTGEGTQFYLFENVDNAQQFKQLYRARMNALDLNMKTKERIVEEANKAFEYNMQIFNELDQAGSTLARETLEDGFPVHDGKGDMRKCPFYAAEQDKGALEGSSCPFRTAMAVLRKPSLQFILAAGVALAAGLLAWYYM

[2] = target: Ribosomal protein S6 kinase alpha-6 (Homo sapiens, UniProt Q9UK32)
[3] = target: Tyrosine-protein kinase ABL2 (Homo sapiens, UniProt P42684)
Ephrin type-B receptor 4 = target: T3, Ephrin type-B receptor 4 (Homo sapiens, UniProt P54760)
T3 sequence (P54760 whole entry): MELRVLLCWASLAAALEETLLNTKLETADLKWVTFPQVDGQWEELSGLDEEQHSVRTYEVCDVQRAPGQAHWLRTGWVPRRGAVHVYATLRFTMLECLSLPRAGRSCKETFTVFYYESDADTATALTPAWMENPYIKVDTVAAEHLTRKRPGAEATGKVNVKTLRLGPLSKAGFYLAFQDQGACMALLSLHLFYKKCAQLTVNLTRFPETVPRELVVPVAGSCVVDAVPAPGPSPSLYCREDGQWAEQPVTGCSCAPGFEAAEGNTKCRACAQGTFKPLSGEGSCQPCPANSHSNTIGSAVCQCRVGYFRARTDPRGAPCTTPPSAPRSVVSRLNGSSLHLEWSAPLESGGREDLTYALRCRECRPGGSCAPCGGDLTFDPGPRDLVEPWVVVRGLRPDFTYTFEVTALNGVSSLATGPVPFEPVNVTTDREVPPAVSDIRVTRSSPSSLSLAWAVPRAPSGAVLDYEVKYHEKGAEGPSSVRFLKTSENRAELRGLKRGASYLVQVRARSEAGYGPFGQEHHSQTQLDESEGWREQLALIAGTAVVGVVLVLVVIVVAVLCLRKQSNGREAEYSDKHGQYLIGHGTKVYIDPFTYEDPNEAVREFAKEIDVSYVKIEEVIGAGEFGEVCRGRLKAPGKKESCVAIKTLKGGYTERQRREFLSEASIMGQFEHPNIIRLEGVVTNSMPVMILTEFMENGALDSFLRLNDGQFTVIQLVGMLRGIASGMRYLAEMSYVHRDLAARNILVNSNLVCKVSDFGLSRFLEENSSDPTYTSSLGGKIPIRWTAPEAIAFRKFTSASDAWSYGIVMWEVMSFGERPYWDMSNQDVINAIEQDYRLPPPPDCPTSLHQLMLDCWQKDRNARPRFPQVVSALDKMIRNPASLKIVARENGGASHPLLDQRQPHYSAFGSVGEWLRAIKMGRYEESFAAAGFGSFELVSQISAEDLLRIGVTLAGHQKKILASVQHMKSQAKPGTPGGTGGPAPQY

[4] = target: STE20-like serine/threonine-protein kinase (Homo sapiens, UniProt Q9H2G2)
[5] = target: Protein-tyrosine kinase 2-beta (Homo sapiens, UniProt Q14289)
Note: in the data inactive means no Kd found up to 30 µM.

Protein-tyrosine kinase 2-beta, sequence (Q14289 whole entry): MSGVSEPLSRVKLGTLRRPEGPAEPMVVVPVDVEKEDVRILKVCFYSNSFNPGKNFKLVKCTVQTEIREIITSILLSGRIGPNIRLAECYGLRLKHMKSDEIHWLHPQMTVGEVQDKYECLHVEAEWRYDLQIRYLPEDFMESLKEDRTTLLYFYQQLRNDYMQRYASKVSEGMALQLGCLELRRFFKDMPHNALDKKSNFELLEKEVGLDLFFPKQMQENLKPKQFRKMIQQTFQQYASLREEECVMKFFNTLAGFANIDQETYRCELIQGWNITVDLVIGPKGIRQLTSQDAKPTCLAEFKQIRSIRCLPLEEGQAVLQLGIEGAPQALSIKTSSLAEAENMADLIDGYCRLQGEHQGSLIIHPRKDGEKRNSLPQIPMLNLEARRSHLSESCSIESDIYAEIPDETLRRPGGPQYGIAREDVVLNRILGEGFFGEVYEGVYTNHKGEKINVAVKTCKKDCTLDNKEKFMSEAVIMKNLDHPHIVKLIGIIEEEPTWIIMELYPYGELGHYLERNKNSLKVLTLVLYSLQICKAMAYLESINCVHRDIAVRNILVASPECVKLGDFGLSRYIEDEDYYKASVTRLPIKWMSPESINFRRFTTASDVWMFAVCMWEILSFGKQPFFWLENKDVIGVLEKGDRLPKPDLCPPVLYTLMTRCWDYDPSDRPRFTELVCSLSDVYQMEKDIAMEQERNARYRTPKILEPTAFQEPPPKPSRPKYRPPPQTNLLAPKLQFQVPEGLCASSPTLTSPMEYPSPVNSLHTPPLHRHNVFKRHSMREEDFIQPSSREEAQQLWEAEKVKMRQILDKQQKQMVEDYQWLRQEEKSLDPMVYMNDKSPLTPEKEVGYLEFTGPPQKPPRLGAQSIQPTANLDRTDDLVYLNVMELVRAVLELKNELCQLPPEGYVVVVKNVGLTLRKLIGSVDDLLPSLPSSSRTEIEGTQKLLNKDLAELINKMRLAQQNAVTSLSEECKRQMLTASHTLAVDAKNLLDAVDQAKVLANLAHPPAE
STE20-like serine/threonine-protein kinase, sequence (Q9H2G2 whole entry): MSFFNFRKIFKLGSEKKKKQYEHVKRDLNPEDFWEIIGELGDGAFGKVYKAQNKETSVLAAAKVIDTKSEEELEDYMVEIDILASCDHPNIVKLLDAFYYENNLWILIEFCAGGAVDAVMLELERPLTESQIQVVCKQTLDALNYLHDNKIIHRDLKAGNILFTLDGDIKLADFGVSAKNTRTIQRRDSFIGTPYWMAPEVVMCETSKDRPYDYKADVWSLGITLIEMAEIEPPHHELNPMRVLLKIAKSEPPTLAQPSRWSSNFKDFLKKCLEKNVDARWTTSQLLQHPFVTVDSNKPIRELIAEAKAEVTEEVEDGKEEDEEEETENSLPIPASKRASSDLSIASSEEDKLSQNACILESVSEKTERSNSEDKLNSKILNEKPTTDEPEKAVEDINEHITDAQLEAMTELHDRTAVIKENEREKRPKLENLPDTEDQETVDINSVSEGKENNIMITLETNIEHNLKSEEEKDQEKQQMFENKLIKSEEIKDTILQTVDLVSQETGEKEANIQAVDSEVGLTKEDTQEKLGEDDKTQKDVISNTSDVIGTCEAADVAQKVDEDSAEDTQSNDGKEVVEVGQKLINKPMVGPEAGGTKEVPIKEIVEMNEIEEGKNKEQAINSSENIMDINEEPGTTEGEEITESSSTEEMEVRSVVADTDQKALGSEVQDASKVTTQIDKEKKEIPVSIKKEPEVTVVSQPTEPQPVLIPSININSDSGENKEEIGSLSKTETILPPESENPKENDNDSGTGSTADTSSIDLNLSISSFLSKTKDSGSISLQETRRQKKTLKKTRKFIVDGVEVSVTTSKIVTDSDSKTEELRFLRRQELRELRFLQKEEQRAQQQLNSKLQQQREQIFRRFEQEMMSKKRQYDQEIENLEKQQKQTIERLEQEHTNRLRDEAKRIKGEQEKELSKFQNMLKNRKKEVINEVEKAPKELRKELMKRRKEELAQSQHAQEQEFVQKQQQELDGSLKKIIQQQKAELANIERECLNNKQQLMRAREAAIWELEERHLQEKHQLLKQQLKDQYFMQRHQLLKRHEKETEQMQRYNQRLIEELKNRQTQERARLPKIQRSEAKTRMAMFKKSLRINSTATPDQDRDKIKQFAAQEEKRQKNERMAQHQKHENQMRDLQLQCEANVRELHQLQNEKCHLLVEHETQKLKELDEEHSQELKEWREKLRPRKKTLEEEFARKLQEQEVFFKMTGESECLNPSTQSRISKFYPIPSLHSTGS
ATP-dependent RNA helicase DDX3X, sequence (O00571 whole entry): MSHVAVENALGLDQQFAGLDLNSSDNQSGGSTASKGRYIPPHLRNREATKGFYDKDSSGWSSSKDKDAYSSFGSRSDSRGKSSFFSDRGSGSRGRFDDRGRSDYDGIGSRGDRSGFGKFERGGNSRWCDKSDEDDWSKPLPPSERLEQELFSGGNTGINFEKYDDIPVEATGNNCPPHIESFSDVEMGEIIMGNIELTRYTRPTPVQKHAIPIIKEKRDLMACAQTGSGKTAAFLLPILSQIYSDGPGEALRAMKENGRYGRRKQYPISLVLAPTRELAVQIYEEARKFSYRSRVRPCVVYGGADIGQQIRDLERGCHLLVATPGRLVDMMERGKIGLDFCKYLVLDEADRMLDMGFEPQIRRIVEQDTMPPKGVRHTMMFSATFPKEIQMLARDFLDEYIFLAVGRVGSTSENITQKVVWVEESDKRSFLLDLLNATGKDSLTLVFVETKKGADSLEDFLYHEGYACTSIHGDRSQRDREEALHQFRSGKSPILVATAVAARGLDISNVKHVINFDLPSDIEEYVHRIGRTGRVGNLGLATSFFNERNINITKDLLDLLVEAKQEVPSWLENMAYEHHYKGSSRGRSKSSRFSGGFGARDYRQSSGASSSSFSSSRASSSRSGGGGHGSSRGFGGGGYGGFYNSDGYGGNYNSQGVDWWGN
Ribosomal protein S6 kinase alpha-6, sequence (Q9UK32 whole entry): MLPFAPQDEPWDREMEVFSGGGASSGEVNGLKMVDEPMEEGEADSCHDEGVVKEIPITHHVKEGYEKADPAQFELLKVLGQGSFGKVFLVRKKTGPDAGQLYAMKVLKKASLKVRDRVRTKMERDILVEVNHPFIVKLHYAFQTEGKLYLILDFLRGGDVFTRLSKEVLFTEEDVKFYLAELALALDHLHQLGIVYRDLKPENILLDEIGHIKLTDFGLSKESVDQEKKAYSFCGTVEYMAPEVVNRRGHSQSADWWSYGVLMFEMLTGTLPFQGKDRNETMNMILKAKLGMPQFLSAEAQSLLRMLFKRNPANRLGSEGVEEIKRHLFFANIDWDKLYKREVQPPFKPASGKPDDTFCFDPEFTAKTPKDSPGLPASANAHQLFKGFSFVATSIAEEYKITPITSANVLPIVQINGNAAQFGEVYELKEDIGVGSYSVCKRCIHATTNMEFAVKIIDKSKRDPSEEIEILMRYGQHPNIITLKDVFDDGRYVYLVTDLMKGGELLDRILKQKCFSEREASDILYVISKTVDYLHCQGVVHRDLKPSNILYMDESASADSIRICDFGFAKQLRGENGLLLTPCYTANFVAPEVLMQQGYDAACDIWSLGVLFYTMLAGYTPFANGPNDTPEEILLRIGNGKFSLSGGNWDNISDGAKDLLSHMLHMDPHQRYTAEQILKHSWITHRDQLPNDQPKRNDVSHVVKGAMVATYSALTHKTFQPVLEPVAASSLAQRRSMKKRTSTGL
Tyrosine-protein kinase ABL2, sequence (P42684 whole entry): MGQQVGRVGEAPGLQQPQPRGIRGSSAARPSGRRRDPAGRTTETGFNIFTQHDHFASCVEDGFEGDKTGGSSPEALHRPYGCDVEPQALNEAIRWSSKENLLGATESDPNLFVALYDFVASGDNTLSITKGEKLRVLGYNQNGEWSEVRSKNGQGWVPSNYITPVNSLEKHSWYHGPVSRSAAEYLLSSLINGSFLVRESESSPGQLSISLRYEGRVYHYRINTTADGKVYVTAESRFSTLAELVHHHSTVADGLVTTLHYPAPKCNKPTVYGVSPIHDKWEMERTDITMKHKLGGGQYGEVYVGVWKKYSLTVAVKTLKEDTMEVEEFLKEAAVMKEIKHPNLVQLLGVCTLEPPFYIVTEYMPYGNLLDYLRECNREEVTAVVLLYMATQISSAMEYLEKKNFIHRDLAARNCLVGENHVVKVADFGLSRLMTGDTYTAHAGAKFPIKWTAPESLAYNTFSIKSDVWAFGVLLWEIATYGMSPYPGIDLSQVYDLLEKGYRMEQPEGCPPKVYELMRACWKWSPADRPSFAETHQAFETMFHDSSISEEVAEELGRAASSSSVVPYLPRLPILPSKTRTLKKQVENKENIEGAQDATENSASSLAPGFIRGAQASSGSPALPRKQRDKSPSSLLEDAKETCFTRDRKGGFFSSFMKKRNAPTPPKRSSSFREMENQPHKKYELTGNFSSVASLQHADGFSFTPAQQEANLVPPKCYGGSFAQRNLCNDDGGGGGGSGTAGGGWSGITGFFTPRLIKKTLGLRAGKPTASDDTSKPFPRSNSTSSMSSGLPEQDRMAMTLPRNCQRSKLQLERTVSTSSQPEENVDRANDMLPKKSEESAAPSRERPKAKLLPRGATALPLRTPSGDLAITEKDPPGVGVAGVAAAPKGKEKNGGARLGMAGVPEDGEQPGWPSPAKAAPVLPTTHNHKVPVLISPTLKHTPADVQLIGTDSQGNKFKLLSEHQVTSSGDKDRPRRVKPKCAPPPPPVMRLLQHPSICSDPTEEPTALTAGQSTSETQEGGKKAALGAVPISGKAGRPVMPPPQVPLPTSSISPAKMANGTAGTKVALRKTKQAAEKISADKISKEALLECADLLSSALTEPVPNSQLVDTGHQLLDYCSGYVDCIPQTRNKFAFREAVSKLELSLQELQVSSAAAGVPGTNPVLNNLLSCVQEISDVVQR

CN(C)C(=O)c1cc2cnc(Nc3ccc(N4CCNCC4)cn3)nc2n1C1CCCC1 [RIBOCICLIB]
Kd [1]: > 30 µM (inactive) | Kd (Activin receptor type-1): > 30 µM (inactive) | Kd (Heme oxygenase 2): > 30 µM (inactive) | Kd [2]: > 30 µM (inactive) | Kd [3]: > 30 µM (inactive) | Kd (Ephrin type-B receptor 4): > 30 µM (inactive) | Kd [4]: > 30 µM (inactive) | Kd [5]: > 30 µM (inactive)

COc1cc2nccc(Oc3ccc(NC(=O)Nc4cc(C)on4)c(Cl)c3)c2cc1OC [TIVOZANIB]
Kd [1]: > 30 µM (inactive) | Kd (Activin receptor type-1): > 30 µM (inactive) | Kd (Heme oxygenase 2): > 30 µM (inactive) | Kd [2]: > 30 µM (inactive) | Kd [3]: 0.302 µM (active) | Kd [4]: > 30 µM (inactive) | Kd [5]: > 30 µM (inactive)

Cc1cc2c(F)c(Oc3ncnn4cc(OC[C@@H](C)OC(=O)[C@H](C)N)c(C)c34)ccc2[nH]1 [BRIVANIB ALANINATE]
Kd [1]: > 30 µM (inactive) | Kd (Activin receptor type-1): > 30 µM (inactive) | Kd (Heme oxygenase 2): > 30 µM (inactive) | Kd [2]: > 30 µM (inactive) | Kd [3]: > 30 µM (inactive) | Kd (Ephrin type-B receptor 4): > 30 µM (inactive) | Kd [4]: 9.49 µM (active) | Kd [5]: > 30 µM (inactive)

Cc1cn(-c2cc(NC(=O)c3ccc(C)c(Nc4nccc(-c5cccnc5)n4)c3)cc(C(F)(F)F)c2)cn1 [NILOTINIB]
Kd [1]: > 30 µM (inactive) | Kd (Heme oxygenase 2): > 30 µM (inactive)

Cc1cc(Nc2cc(N3CCN(C)CC3)nc(/C=C/c3ccccc3)n2)n[nH]1 [ENMD-2076]
Kd [1]: > 30 µM (inactive) | Kd (Heme oxygenase 2): > 30 µM (inactive) | Kd (Ephrin type-B receptor 4): > 30 µM (inactive) | Kd [4]: > 30 µM (inactive) | Kd [5]: > 30 µM (inactive)

O=C(Nc1cccc(Cl)c1)Nc1ncc(CCNc2ncnc3ccsc23)s1 [SNS-314]
Kd [1]: > 30 µM (inactive) | Kd (Activin receptor type-1): > 30 µM (inactive) | Kd (Heme oxygenase 2): > 30 µM (inactive) | Kd [2]: > 30 µM (inactive) | Kd [3]: > 30 µM (inactive) | Kd (Ephrin type-B receptor 4): > 30 µM (inactive) | Kd [5]: > 30 µM (inactive)

Cc1nc(N)sc1-c1ccnc(Nc2ccc(N3CCOCC3)cc2)n1 [CYC-116]
Kd [1]: > 30 µM (inactive) | Kd (Activin receptor type-1): 0.396 µM (active) | Kd (Heme oxygenase 2): > 30 µM (inactive) | Kd [2]: > 30 µM (inactive) | Kd [3]: > 30 µM (inactive) | Kd (Ephrin type-B receptor 4): 4.61 µM (active)

COCCNCc1ccc(-c2cc3nccc(Oc4ccc(NC(=S)NC(=O)Cc5ccc(F)cc5)cc4F)c3s2)nc1 [GLESATINIB]
Kd [1]: > 30 µM (inactive) | Kd (Activin receptor type-1): > 30 µM (inactive) | Kd (Heme oxygenase 2): > 30 µM (inactive) | Kd [2]: > 30 µM (inactive) | Kd (Ephrin type-B receptor 4): > 30 µM (inactive) | Kd [4]: > 30 µM (inactive) | Kd [5]: > 30 µM (inactive)

CCn1c(-c2nonc2N)nc2c(C#CC(C)(C)O)ncc(OC[C@H]3CCCNC3)c21 [GSK-690693]
Kd [1]: > 30 µM (inactive) | Kd (Heme oxygenase 2): > 30 µM (inactive)

CO[C@H]1C[C@@H]2CC[C@@H](C)[C@@](O)(O2)C(=O)C(=O)N2CCCC[C@H]2C(=O)O[C@H]([C@H](C)C[C@@H]2CC[C@@H](OCCO)[C@H](OC)C2)CC(=O)[C@H](C)/C=C(\C)[C@@H](O)[C@@H](OC)C(=O)[C@H](C)C[C@H](C)/C=C/C=C/C=C/1C [EVEROLIMUS]
Kd [1]: > 30 µM (inactive) | Kd (Activin receptor type-1): > 30 µM (inactive) | Kd (Heme oxygenase 2): > 30 µM (inactive) | Kd [2]: > 30 µM (inactive) | Kd [3]: > 30 µM (inactive) | Kd (Ephrin type-B receptor 4): > 30 µM (inactive) | Kd [4]: > 30 µM (inactive) | Kd [5]: > 30 µM (inactive)

CN1CCN(c2ccc3nc(-c4c(N)c5c(F)cccc5[nH]c4=O)[nH]c3c2)CC1 [DOVITINIB]
Kd [1]: > 30 µM (inactive) | Kd (Heme oxygenase 2): > 30 µM (inactive)

Nc1nc(N)c2nc(-c3cccc(O)c3)c(-c3cccc(O)c3)nc2n1 [TG100-115]
Kd [1]: > 30 µM (inactive) | Kd (Heme oxygenase 2): > 30 µM (inactive)
